Test results reported in US20050222114A1, “Use of new etonogestrel esters” (priority 2002, published 2005).
Read-outs that look alike come from different tables or passages of the source.

What was measured:
[1] = Pharmacokinetics of etonogestrel esters after one i.m. injection in rabbits (plasma etonogestrel by LC-MSMS); details: rabbit; for initial peak level of etonogestrel in plasma: one i.m. injection 20 mg/kg in arachis oil (40 mg/ml)
Procedure: (§1) For the determination of the pharmacokinetic profile of the different etonogestrel-esters after parenteral application, i.m. application in the castrated rabbit model was chosen instead of s.c. Briefly, rabbits were injected once (day 1) with indicated etonogestrel-esters at 20 mg/kg in arachis oil (with a concentration of 40 mg/ml). At day 1, 2, 3, 4, 5, 6, 7, 8, 10, 12, 14, 21, 28, 35, 49, 63, 77, 92, 106, 120 and 133 blood was collected from the ear arteria, in EDTA-containing tubes. EDTA plasma was prepared (1500 g, 15 min) and stored at −20° C. With LC-MSMS the amount of parent compound (etonogestrel) was determined in these samples. The lower limit of this new assay is 0.5 nmol/l, from 0-250 nmol/l a linear curve was obtained with a correlation coefficient of 0,9998.

[2] = Solubility in solvents determined visually (appearance); assay type: physicochemical; details: for solubility at two times the desired concentration: all four solvents tested, desired concentration 50 mg/ml etonogestrel-undecanoate, 100 mg/ml MENT-undecanoate
Procedure: To determine the solubility and viscosity of MENT undecanoate and etonogestrel undecanoate, four different solvents were used: • ethyl undecanoate • ethyl undecanoate+50% benzyl benzoate • arachis oil • arachis oil+50% benzyl benzoate
Using these solvents, the following solutions were prepared: • 100 mg/ml etonogestrel undecanoate in the different solvents • 50 mg/ml etonogestrel undecanoate in the different solvents • 200 mg/ml MENT undecanoate in the different solvents • 100 mg/ml MENT undecanoate in the different solvents • 50 mg/ml etonogestrel undecanoate+100 mg/ml MENT undecanoate in the different solvents
The two combined solvents were prepared by addition of 50 gram of ethyl undecanoate or arachis oil to 50 gram of benzyl benzoate. […] The arachis oil+50% benzyl benzoate solution was not filtered.
The solubility of the compounds in the solvents was determined visually. The viscosity was determined using a Brookfield model DV-III. The density of the solutions was determined using a Mettler Toledo DA-100M density meter.

[3] = hypogonadal men, one IM injection, FIG. 5; cited from earlier work
[4] = Pharmacokinetics of androgen esters after one s.c. injection in castrated rabbits (plasma MENT or testosterone by LC-MSMS); assay type: in vivo; details: castrated rabbit, one s.c. injection 20 mg/kg in arachis oil (100 mg/ml)
Procedure: With LC-MSMS, the amount of parent compound (testosterone or MENT) was determined in these samples.

[5] = rabbit, in vivo, 20 mg/kg
Procedure: as §1

[6] = one i.m. injection 20 mg/kg in arachis oil

C#C[C@]1(OC(=O)CCCCCCCCCC)CC[C@H]2[C@@H]3CCC4=CC(=O)CC[C@@H]4[C@H]3C(=C)C[C@@]21CC [etonogestrel undecanoate]
duration of action: etonogestrel levels above 1 nmol/l [1, 6]: more than 92 days | initial peak level of etonogestrel in plasma [1]: 13 nmol/L | solubility at two times the desired concentration [2]: could be dissolved at two times the desired concentration

C#C[C@]1(OC(=O)CCCCCCCCCCC)CC[C@H]2[C@@H]3CCC4=CC(=O)CC[C@@H]4[C@H]3C(=C)C[C@@]21CC [etonogestrel dodecanoate]
initial peak level of etonogestrel in plasma [1]: 9 nmol/L

C#C[C@]1(OC(=O)CCCCCCCCCCCC)CC[C@H]2[C@@H]3CCC4=CC(=O)CC[C@@H]4[C@H]3C(=C)C[C@@]21CC [etonogestrel tridecanoate]
pharmacokinetic profile of released etonogestrel (in words) [1, 6]: no initial levels of etonogestrel were observed

C#CC1(OC(=O)CCCCCCCCC)CCC2C3CCC4=CC(=O)CCC4C3C(=C)CC21CC (stereo not shown) [etonogestrel decanoate]
initial peak level of etonogestrel in plasma [1]: 24 nmol/L

CCCCCCCCCCC(=O)O[C@H]1CC[C@H]2[C@H]3[C@H](CC[C@]12C)[C@H]1CCC(=O)C=C1C[C@H]3C [MENT-undecanoate]
heating necessary to dissolve ([2]; 200 mg/ml in arachis oil): approximately 50 °C | solubility at two times the desired concentration [2]: could be dissolved at two times the desired concentration

CCCCCCCCCCC(=O)O[C@H]1CC[C@H]2[C@@H]3CCC4=CC(=O)CC[C@]4(C)[C@H]3CC[C@]12C [testosterone undecanoate]
pharmacokinetics of serum testosterone in humans (in words) [3]: low initial release and steady-state levels of long duration

CCCCCCC(=O)O[C@H]1CC[C@H]2[C@@H]3CCC4=CC(=O)CC[C@]4(C)[C@H]3CC[C@]12C [Testosterone-enanthate]
pharmacokinetic profile of released MENT or testosterone (in words) [4]: high peak of testosterone

C#C[C@]1(OC(=O)CCCCCCCC)CC[C@H]2[C@@H]3CCC4=CC(=O)CC[C@@H]4[C@H]3C(=C)C[C@@]21CC [etonogestrel nonanoate]
pharmacokinetic profile of released etonogestrel (in words) [1, 6]: lower peak levels and extended duration with serum levels of etonogestrel above 1 nmol/l

C#C[C@]1(O)CC[C@H]2[C@@H]3CCC4=CC(=O)CC[C@@H]4[C@H]3C(=C)C[C@@]21CC [etonogestrel, (17α)-13-ethyl-17-hydroxy-11-methylene-18,19-dinorpregn-4-en-20-yn-3-one]
initial peak level of etonogestrel in plasma [5]: 200 nmol/L

C#C[C@]1(OC(=O)CCCCCC)CC[C@H]2[C@@H]3CCC4=CC(=O)CC[C@@H]4[C@H]3C(=C)C[C@@]21CC [etonogestrel heptanoate]
initial peak level of etonogestrel in plasma [1]: 120 nmol/L
